Several values for one entry are separate records, joined by “and”; a condition that tells them apart may be missing. Equal entries are not always repeated. Entries after “also recorded” stand apart in the source; their conditions may differ. Where two headings read alike, the source gives them in different places.
Key:
[1] = biological target: T1, MT1 (Homo sapiens, UniProt P48039); conditions: for MT1 pIC50±SEM: 4°C 60 min, mean ± SEM of 3–5 trials, NSB = no specific binding for up to 30 µM
Experimental: (§5) Competitive receptor binding characteristics of melatonin and the 15 tested compounds towards human MT1 and MT2 stably expressed in Chinese hamster ovary (CHO) cells were determined using intact cell preparation pre-incubated with 1 nM [^3H]melatonin.
(§6) Individual melatonin receptor subtype (either MT1 or MT2) was stably co-expressed with a G protein chimera 16z25 in Chinese hamster ovary (CHO) cells, hereafter denoted as CHO-hMT1 and CHO-hMT2, respectively. […] Single cell-derived colonies of the stable lines with sufficiently high receptor density and robust responses in the fluorometric assay (as described below) were isolated from the pool of transfected cell. Usage of these clonal lines was limited to 15 passages to prevent degradation of signal detection.
(§7) Competitive binding assays were performed as described [26]. Cells were suspended in binding buffer (50 mM Tris, 2 mM MgCl2, 1 mM EGTA, pH 7.4) in the density of 1.5×10^5 cell/ml. 1 nM [^3H]melatonin and increasing concentrations of a tested compound was included. Cells were incubated at 4°C for 60 min with intermittent agitation and the reaction was stopped by rapid filtration through GF/C filters pre-soaked in 10 mM Tris, pH 7.4 and washed with 1 ml of prechilled binding buffer. Retained radioactivity was measured with Wallac 1450 Microbeta Jet scintillation counter. Competition curves were drawn as one-site competition nonlinear regression model using GraphPad Prism 3.03 to the data which were means ± SEM of 3–4 independent experiments performed in duplicates. In every assay, melatonin was included as standard reference with highly reproducible Ki values, which were calculated using the Cheng-Prusoff equation.

[2] = biological target: T2, MT2 (Homo sapiens, UniProt P49286); experiment: biochemical; conditions: for Ki: MT2 Ki, calculated from mean pIC50 (Cheng-Prusoff), 1 nM [3H]melatonin, intact CHO cells; for Emax: read-out: MT2 %Resp±SEM (percentage of melatonin-mediated displacement of radioligand binding)
T2 sequence (P49286 1-362): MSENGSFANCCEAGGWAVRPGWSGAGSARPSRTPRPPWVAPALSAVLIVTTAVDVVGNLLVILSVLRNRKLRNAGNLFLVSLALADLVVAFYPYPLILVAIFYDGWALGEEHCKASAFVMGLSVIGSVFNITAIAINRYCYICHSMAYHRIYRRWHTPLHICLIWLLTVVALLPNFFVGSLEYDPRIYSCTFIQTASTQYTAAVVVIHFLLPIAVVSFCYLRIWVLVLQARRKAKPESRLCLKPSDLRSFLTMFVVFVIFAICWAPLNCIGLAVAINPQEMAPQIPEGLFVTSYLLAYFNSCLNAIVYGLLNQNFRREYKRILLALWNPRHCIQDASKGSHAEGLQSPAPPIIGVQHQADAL
Experimental: as §5, §6, §7

[3] = biological target: T2, MT2; experiment: Intracellular Ca2+ mobilization (FLIPR) in MT2-CHO cells co-expressing 16z25; format: cell-based; set-up: expressed in transfected cells; conditions: for Emax: percentage of melatonin (MT)-mediated stimulation of Ca2+ signal, read-out: MT2 %Resp ±SEM, Ca2+ signal
Experimental: (§1) Tested compounds in different concentrations were diluted in assay buffer in 5× of the final desired concentrations in a V-bottomed microplate, and both the cell and compound plates were put into the fluorometric imaging plate reader FLIPR^TETRA (Molecular Devices, Sunnyvale, CA). […] The peak of the time course of fluorescence changes was expressed in relative fluorescence units (RFU). Dose response curves were constructed by non-linear regression using GraphPad Prism 3.

[4] = biological target: T2, MT2; experiment: Inhibition of forskolin-stimulated cAMP accumulation in MT2-CHO cells; format: cell-based; set-up: expressed in transfected cells; conditions: for IC50: MT2-CHO cells, 50 µM forskolin, calculated from mean pIC50, read-out: MT2 IC50, inhibition of cAMP production; for MT2 %Inhmax ±SEM: maximal percentage inhibition of the forskolin-elevated cAMP level, MT2-CHO
Experimental: (§2) Both MT1 and MT2 are classified as Gi-coupled receptors with their activation leading to inhibition of intracellular cAMP production. The ability of the tested compounds to activate the endogenously expressed Gi-mediated inhibition of cAMP production was therefore examined.
(§3) All the responses were expressed as the percentage of that induced by forskolin alone (as 100%).
(§4) 2×10^5 cells were seeded in each well of 12-well plates and grown for overnight. Each well was labeled with 1 ml of [^3H]adenine (1 µCi/ml) in F-12K medium containing 1% FBS (vol/vol) for overnight. The labeling media were then replaced by 1 ml of 20 mM HEPES-buffered F-12K containing 1 mM isobutylmethylxanthine (IBMX) and the tested compounds at desired concentrations, and incubated at 37°C for 30 min. The reaction was stopped by aspiration and adding 1 ml prechilled 5% trichloroacetic acid (w/v) with 1 mM ATP, and stored at 4°C for 30 min. [^3H]cAMP was extracted from the pool of labeled adenosine nucleotides by sequential ion-exchange chromatography as previously described. The radioactivity of labeled cAMP and total labeled nucleotide fractions separated by chromatography were estimated by scintillation counting. Inhibition curves were constructed by non-linear regression using GraphPad Prism 3.

[5] = biological target: T1, MT1; experiment: Inhibition of forskolin-stimulated cAMP accumulation in MT1-CHO cells; format: cell-based; set-up: expressed in transfected cells; conditions: for inhibition of cAMP levels in MT1-CHO cells (in words): forskolin-stimulated; for MT1 %Inhmax ±SEM: maximal percentage inhibition of the forskolin-elevated cAMP level, MT1-CHO; for MT1 IC50, inhibition of cAMP production: MT1-CHO cells, 50 µM forskolin, calculated from mean pIC50, NSR = no significant response for up to 10 µM
Experimental: as §2, §3, §4

[6] = biological target: T1, MT1; experiment: Intracellular Ca2+ mobilization (FLIPR) in MT1-CHO cells co-expressing 16z25; format: cell-based; set-up: expressed in transfected cells; conditions: for Ca2+ mobilization activity at MT1 (in words): MT1-CHO cells, maximal concentration tested 10 µM
Experimental: as §1

[7] = biological target: T2, MT2; conditions: for displacement of pre-incubated [3H]melatonin at MT2 (in words): competitive binding, intact CHO cells
Experimental: as §5, §6, §7

[8] = biological target: T1, MT1; experiment: biochemical; conditions: for Emax: read-out: MT1 %Resp±SEM (percentage of melatonin-mediated displacement of radioligand binding)
Experimental: as §5, §6, §7

[9] = 1 nM [3H]melatonin, intact CHO cells
[10] = MT2-CHO cells, FLIPR, calculated from mean pEC50, NSR = no significant response for up to 30 µM, read-out: MT2 EC50, Ca2+ mobilization
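For MT1 %Resp±SEM (percentage of melatonin-mediated displacement of radioligand binding) in this document: competitive radioligand displacement on intact CHO cells stably co-expressing human MT1 together with the G protein chimera 16z25, using rising concentrations of each compound.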
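For MT1 pIC50±SEM in this document: competitive radioligand displacement on intact CHO cells stably co-expressing human MT1 together with the G protein chimera 16z25, using rising concentrations of each compound.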
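For Selectivity, ratio Ki(MT1)/Ki(MT2) in this document: competition binding on intact CHO cells stably co-expressing human MT2 with G protein chimera 16z25, displacing [3H]melatonin at 4°C over 60 min, melatonin run as reference.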
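For displacement of pre-incubated [3H]melatonin at MT2 (in words) in this document: competition binding on intact CHO cells stably co-expressing human MT2 with G protein chimera 16z25, displacing [3H]melatonin at 4°C over 60 min, melatonin run as reference.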
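For selectivity toward MT2 over MT1 in this document: competition binding on intact CHO cells stably co-expressing human MT2 with G protein chimera 16z25, displacing [3H]melatonin at 4°C over 60 min, melatonin run as reference.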

T1 sequence (P48039 whole entry): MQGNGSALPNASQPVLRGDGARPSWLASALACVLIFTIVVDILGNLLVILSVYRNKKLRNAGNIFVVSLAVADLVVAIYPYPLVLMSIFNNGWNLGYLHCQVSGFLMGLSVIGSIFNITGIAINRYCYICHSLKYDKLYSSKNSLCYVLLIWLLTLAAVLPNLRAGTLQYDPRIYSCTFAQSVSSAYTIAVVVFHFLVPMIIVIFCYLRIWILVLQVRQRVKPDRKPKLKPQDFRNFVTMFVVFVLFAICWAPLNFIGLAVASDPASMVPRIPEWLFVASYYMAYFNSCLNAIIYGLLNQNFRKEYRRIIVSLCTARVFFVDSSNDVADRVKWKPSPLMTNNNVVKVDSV

Compound | MT1 pIC50±SEM [1, 9] | melting point [°C] | IC50 [2] [nM] | Ki [2] | Emax [2] [%] | EC50 [3, 10] [nM] | Emax ([3]; MT2) [%] | IC50 [4] [nM] | MT2 %Inhmax ±SEM [4] [%] | MT1 IC50, inhibition of cAMP production [5] | Ca2+ mobilization activity at MT1 (in words) [6] | IC50 [8] [µM] | Emax [8] [%] | Selectivity, ratio Ki(MT1)/Ki(MT2) [7] | further results
COc1cc2c(=O)n(C)ccc2cc1OCc1ccccc1 [7a, 6-Benzyloxy-7-methoxy-2-methylisoquinolin-1(2H)-one] | NSB ^c | 102 to 104 | 2820 | 852 nM | 78 ± 7 | 163 | 84 ± 20 |  |  |  |  |  |  |  | concentration triggering Ca2+ signals exclusively in MT2-CHO cells ([3]; from concentration response curves, Figure 4): around 1 µM
COc1ccccc1COc1cc2ccn(C)c(=O)c2cc1OC [7d, 7-Methoxy-6-(2-methoxy-benzyloxy)-2-methylisoquinolin-1(2H)-one] | NSB | 150 to 152 | 2240 | 674 nM | 79 ± 5 | 25.7 | 85 ± 22 | 247 | 59±5 |  |  |  |  |  | inhibition of cAMP levels in MT1-CHO cells (in words) [5]: observable inhibition; MT1 %Inhmax ±SEM [5]: 33±13%; IC50 ([5]; read-out: MT1 IC50, inhibition of cAMP production): 396 nM; reduction of ability to trigger Ca2+ signal on moving methoxy from meta to ortho (vs 7b) ([3]; MT2-CHO): 2 orders of magnitude
COc1cc2c(=O)n(C)ccc2cc1OCc1cc(C)cc(C)c1 [7g, 6-(3,5-Dimethyl-benzyloxy)-7-methoxy-2-methylisoquinolin-1(2H)-one] | NSB |  | 3470 | 1050 nM | 86 ± 2 | 110 | 83 ± 6 |  |  |  |  |  |  |  | 
COc1cccc(COc2cc3c(=O)n(C)ccc3cc2OC)c1 [14b, 6-Methoxy-7-(3-methoxy-benzyloxy)-2-methylisoquinolin-1(2H)-one] | NSB |  | 1000 | 302 nM | 92 ± 3 | 48.9 | 96 ± 16 | 69.4 | 71±6 | NSR | could not produce any activity |  |  |  | displacement of pre-incubated [3H]melatonin at MT2 (in words) [7]: completely displaced; fold less potent than 7b (EC50, Ca2+ signal, MT2) ([3]; relative to 7b, MT2-CHO): > 160 fold
COc1cc(COc2cc3c(=O)n(C)ccc3cc2OC)cc(OC)c1 [14c, 7-(3,5-Dimethoxy-benzyloxy)-6-methoxy-2-methylisoquinolin-1(2H)-one] | NSB |  | 18200 | 5490 nM | 94 ± 11 | 228 | 71 ± 17 | 326 | 58±3 | NSR | could not produce any activity |  |  |  | Ca2+ mobilization activity at MT2 (in words) ([3]; MT2-CHO cells, FLIPR): partial efficacy; fold less potent than 7c (Ca2+ signal, MT2) ([3]; relative to 7c, MT2-CHO): 11 fold
COc1ccc2c(=O)n(C)ccc2c1OCc1ccccc1 [15a, 5-Benzyloxyl-6-methoxy-2-methylisoquinolin-1(2H)-one] |  | 125 to 127 | 1200 | 362 nM | 85 ± 8 | 215 | 70 ± 9 |  |  |  |  | 9.12 | 84 ± 10 | 5.72 | Ki [8]: 2070 nM
COc1cccc(COc2c(OC)ccc3c(=O)n(C)ccc23)c1 [15b, 6-Methoxy-5-(3-methoxy-benzyloxy)-2-methyl-2H-isoquinolin-1-one] |  |  | 5.5 | 1.7 nM and 1.66 nM | 85 ± 8 |  | 89 ± 20 | 0.81 | 61±4 | NSR | could not produce any activity; also recorded: totally inactive | 13.2 | 71 ± 13 | 1800 | Ki ([1]; read-out: MT1 Ki, calculated from mean pIC50 (Cheng-Prusoff), 1 nM [3H]melatonin, intact CHO cells): 2980 nM; inhibition of cAMP levels in MT1-CHO cells (in words) [5]: completely inactive; EC50 ([3]; MT2-CHO cells, FLIPR, mean ± SEM of 3–5 trials, read-out: MT2 pEC50 ±SEM, Ca2+ mobilization (converted)): 0.145 nM
COc1cc(COc2c(OC)ccc3c(=O)n(C)ccc23)cc(OC)c1 [15c, 5-(3,5-Dimethoxy-benzyloxy)-6-methoxy-2-methylisoquinolin-1(2H)-one] |  | 85 to 86 | 141 | 42 nM | 94 ± 13 | 4.08 | 85 ± 19 | 40.6 | 64±3 | NSR | could not produce any activity | 9.33 | 63 ± 4 | 50.7 | Ki [8]: 2130 nM; selectivity toward MT2 over MT1 ([7]; binding, Ki ratio): 51 fold; displacement of pre-incubated [3H]melatonin at MT2 (in words) [7]: almost complete displacement; fold more potent than 7c (Ca2+ signal, MT2) ([3]; relative to 7c, MT2-CHO): 5 fold
COc1ccc2c(=O)n(C)ccc2c1OCc1ccc(C)cc1 [15d, 6-Methoxy-2-methyl-5-(4-methyl-benzyloxy)-isoquinolin-1(2H)-one] |  |  | 9550 | 2890 nM | 74 ± 11 | 128 | 40 ± 17 |  |  |  |  | 3.39 | 34 ± 5 | 0.27 | Ki [8]: 770 nM
COc1ccc2[nH]cc(CCNC(C)=O)c2c1 [MT, N-acetyl-5-methoxytryptamine, reference compound] |  |  |  |  |  |  |  |  |  |  |  |  |  |  | MT1 %Resp±SEM (percentage of melatonin-mediated displacement of radioligand binding) ([1]; relative to melatonin (MT)-mediated displacement): 95±2%; MT1 %Inhmax ±SEM [5]: 59±2%; MT1 %Inhmax ±SEM ([5]; listed as Melatonin): 60–70%; MT1 %Resp ±SEM, Ca2+ signal [6]: 100±26%
COc1cc2ccn(C)c(=O)c2cc1O [compound 12, 7-Hydroxy-6-methoxy-2-methylisoquinolin-1(2H)-one] |  |  |  |  |  |  |  |  |  |  |  |  |  |  | Emax at 10 µM ([6]; at 10 µM, partial activation, data not shown, read-out: maximal response, Ca2+ mobilization, MT1): 36%; Emax at 10 µM ([3]; MT2, at 10 µM, partial activation, data not shown, read-out: maximal response, Ca2+ mobilization, MT2): 53%
